Measured values as given in PubChem BioAssay (NCI).
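Step 1: Grow cells in 96-well plates. Step 2: Expose to compound for 48 hours at 5 concentrations. Step 3: Interpolate endpoints linearly; if unreached, use highest concentration. GI50: concentration for 50% inhibition of growth. At the TGI there is no net growth.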

Assays:
Assay in all cases: inhibition of tumour cell growth, NCI panel, 48 h
786-0 renal = test system: 786-0 renal
A498 renal = test system: A498 renal
A549 NSCLC = test system: A549 NSCLC
ACHN renal = test system: ACHN renal
BT-549 breast = test system: BT-549 breast
CAKI-1 renal = test system: CAKI-1 renal
CCRF-CEM leukemia = test system: CCRF-CEM leukemia
COLO 205 colon = test system: COLO 205 colon
DU-145 prostate = test system: DU-145 prostate
EKVX NSCLC = test system: EKVX NSCLC
HCC-2998 colon = test system: HCC-2998 colon
HCT-116 colon = test system: HCT-116 colon
HCT-15 colon = test system: HCT-15 colon
HL-60(TB) leukemia = test system: HL-60(TB) leukemia
HOP-62 NSCLC = test system: HOP-62 NSCLC
HOP-92 NSCLC = test system: HOP-92 NSCLC
HS 578T breast = test system: HS 578T breast
HT29 colon = test system: HT29 colon
IGROV1 ovarian = test system: IGROV1 ovarian
K-562 leukemia = test system: K-562 leukemia
KM12 colon = test system: KM12 colon
LOX IMVI melanoma = test system: LOX IMVI melanoma
M14 melanoma = test system: M14 melanoma
MALME-3M melanoma = test system: MALME-3M melanoma
MCF7 breast = test system: MCF7 breast
MDA-MB-231 breast = test system: MDA-MB-231 breast
MDA-MB-435 = test system: MDA-MB-435
MDA-MB-468 breast = test system: MDA-MB-468 breast
MOLT-4 leukemia = test system: MOLT-4 leukemia
NCI-H226 lung = test system: NCI-H226 lung
NCI-H23 lung = test system: NCI-H23 lung
NCI-H460 lung = test system: NCI-H460 lung
NCI-H522 lung = test system: NCI-H522 lung
NCI/ADR-RES ovarian = test system: NCI/ADR-RES ovarian
OVCAR-3 ovarian = test system: OVCAR-3 ovarian
OVCAR-4 ovarian = test system: OVCAR-4 ovarian
OVCAR-5 ovarian = test system: OVCAR-5 ovarian
OVCAR-8 ovarian = test system: OVCAR-8 ovarian
PC-3 prostate = test system: PC-3 prostate
RPMI-8226 leukemia = test system: RPMI-8226 leukemia
RXF 393 renal = test system: RXF 393 renal
SF-268 CNS = test system: SF-268 CNS
SF-295 CNS = test system: SF-295 CNS
SF-539 CNS = test system: SF-539 CNS
SK-MEL-2 melanoma = test system: SK-MEL-2 melanoma
SK-MEL-28 melanoma = test system: SK-MEL-28 melanoma
SK-MEL-5 melanoma = test system: SK-MEL-5 melanoma
SK-OV-3 ovarian = test system: SK-OV-3 ovarian
SN12C renal = test system: SN12C renal
SNB-19 CNS = test system: SNB-19 CNS
SNB-75 CNS = test system: SNB-75 CNS
SW-620 colon = test system: SW-620 colon
T-47D breast = test system: T-47D breast
TK-10 renal = test system: TK-10 renal
U251 CNS = test system: U251 CNS
UACC-257 melanoma = test system: UACC-257 melanoma
UACC-62 melanoma = test system: UACC-62 melanoma
UO-31 renal = test system: UO-31 renal

For `CN(C)c1nc(NCCNS(=O)(=O)c2ccc(C(=O)/C=C/c3ccc(C(F)(F)F)cc3)cc2)nc(Nc2ccc(F)cc2)n1`, the GI50 (786-0 renal) was 10.6 µM, the TGI (786-0 renal) was 22.7 µM and the GI50 (A498 renal) was 13 µM. It also gave a TGI (A498 renal) of 26.2 µM, a GI50 (A549 NSCLC) of 10 µM and a TGI (A549 NSCLC) of 25.4 µM. For the same molecule, the GI50 (ACHN renal) was 5.08 µM, the TGI (ACHN renal) was 17.4 µM and the GI50 (BT-549 breast) was 12.7 µM. It also gave a TGI (BT-549 breast) of 25.6 µM, a GI50 (CAKI-1 renal) of 6.46 µM and a TGI (CAKI-1 renal) of 19.7 µM. For the same molecule, the GI50 (CCRF-CEM leukemia) was 3.79 µM, the TGI (CCRF-CEM leukemia) was over 100 µM and the GI50 (COLO 205 colon) was 11.2 µM. The TGI (COLO 205 colon) was 24.8 µM, the GI50 (DU-145 prostate) was 11.2 µM and the TGI (DU-145 prostate) was 24 µM. For the same molecule, the GI50 (EKVX NSCLC) was 4.2 µM, the TGI (EKVX NSCLC) was 15.7 µM and the GI50 (HCC-2998 colon) was 1.77 µM. It also gave a TGI (HCC-2998 colon) of 3.61 µM, a GI50 (HCT-116 colon) of 1.68 µM and a TGI (HCT-116 colon) of 3.13 µM. For the same molecule, the GI50 (HCT-15 colon) was 3.22 µM, the TGI (HCT-15 colon) was 11.9 µM and the GI50 (HL-60(TB) leukemia) was 3.82 µM. For the same molecule, the TGI (HL-60(TB) leukemia) was 30 µM, the GI50 (HOP-62 NSCLC) was 13.6 µM and the TGI (HOP-62 NSCLC) was 27.7 µM. For the same molecule, the GI50 (HOP-92 NSCLC) was 6.15 µM, the TGI (HOP-92 NSCLC) was 20.7 µM and the GI50 (HS 578T breast) was 12.7 µM. For the same molecule, the TGI (HS 578T breast) was 49.5 µM, the GI50 (HT29 colon) was 1.91 µM and the TGI (HT29 colon) was 3.95 µM. The GI50 (IGROV1 ovarian) was 12.3 µM, the TGI (IGROV1 ovarian) was 24.9 µM and the GI50 (K-562 leukemia) was 2.98 µM. For the same molecule, the TGI (K-562 leukemia) was 30.4 µM, the GI50 (KM12 colon) was 2.38 µM and the TGI (KM12 colon) was 6 µM. It also gave a GI50 (LOX IMVI melanoma) of 1.86 µM, a TGI (LOX IMVI melanoma) of 3.84 µM and a GI50 (M14 melanoma) of 3.39 µM. The TGI (M14 melanoma) was 12.9 µM, the GI50 (MALME-3M melanoma) was 14.2 µM and the TGI (MALME-3M melanoma) was 27.5 µM. It also gave a GI50 (MCF7 breast) of 1.7 µM, a TGI (MCF7 breast) of 3.56 µM and a GI50 (MDA-MB-231 breast) of 8.38 µM. The TGI (MDA-MB-231 breast) was 20.8 µM, the GI50 (MDA-MB-435) was 2.86 µM and the TGI (MDA-MB-435) was 8.49 µM. The GI50 (MDA-MB-468 breast) was 4.53 µM, the TGI (MDA-MB-468 breast) was 17 µM and the GI50 (MOLT-4 leukemia) was 2.9 µM. For the same molecule, the TGI (MOLT-4 leukemia) was 9.61 µM, the GI50 (NCI-H226 lung) was 7.82 µM and the TGI (NCI-H226 lung) was 24.7 µM. It also gave a GI50 (NCI-H23 lung) of 11.2 µM, a TGI (NCI-H23 lung) of 24.2 µM and a GI50 (NCI-H460 lung) of 4.09 µM. For the same molecule, the TGI (NCI-H460 lung) was 14.9 µM, the GI50 (NCI-H522 lung) was 11.2 µM and the TGI (NCI-H522 lung) was 24.7 µM. The GI50 (NCI/ADR-RES ovarian) was 10.7 µM, the TGI (NCI/ADR-RES ovarian) was 23.7 µM and the GI50 (OVCAR-3 ovarian) was 2.04 µM. For the same molecule, the TGI (OVCAR-3 ovarian) was 5.61 µM, the GI50 (OVCAR-4 ovarian) was 8.78 µM and the TGI (OVCAR-4 ovarian) was 23.1 µM. It also gave a GI50 (OVCAR-5 ovarian) of 12 µM, a TGI (OVCAR-5 ovarian) of 24.4 µM and a GI50 (OVCAR-8 ovarian) of 12.3 µM. It also gave a TGI (OVCAR-8 ovarian) of 30.6 µM, a GI50 (PC-3 prostate) of 4.15 µM and a TGI (PC-3 prostate) of 18.2 µM. The GI50 (RPMI-8226 leukemia) was 3 µM, the TGI (RPMI-8226 leukemia) was over 100 µM and the GI50 (RXF 393 renal) was 3.7 µM. For the same molecule, the TGI (RXF 393 renal) was 16 µM, the GI50 (SF-268 CNS) was 7.71 µM and the TGI (SF-268 CNS) was 22.5 µM. It also gave a GI50 (SF-295 CNS) of 11.3 µM, a TGI (SF-295 CNS) of 23.5 µM and a GI50 (SF-539 CNS) of 10.7 µM. The TGI (SF-539 CNS) was 22.5 µM, the GI50 (SK-MEL-2 melanoma) was 9.45 µM and the TGI (SK-MEL-2 melanoma) was 22.3 µM. The GI50 (SK-MEL-28 melanoma) was 10.4 µM, the TGI (SK-MEL-28 melanoma) was 22.2 µM and the GI50 (SK-MEL-5 melanoma) was 10.4 µM. The TGI (SK-MEL-5 melanoma) was 22.2 µM, the GI50 (SK-OV-3 ovarian) was 13.7 µM and the TGI (SK-OV-3 ovarian) was 27.8 µM. For the same molecule, the GI50 (SN12C renal) was 6.36 µM, the TGI (SN12C renal) was 19.9 µM and the GI50 (SNB-19 CNS) was 12 µM. The TGI (SNB-19 CNS) was 24.3 µM, the GI50 (SNB-75 CNS) was 8.41 µM and the TGI (SNB-75 CNS) was 22.7 µM. It also gave a GI50 (SW-620 colon) of 2.24 µM, a TGI (SW-620 colon) of 5.06 µM and a GI50 (T-47D breast) of 5.16 µM. The TGI (T-47D breast) was 19.6 µM, the GI50 (TK-10 renal) was 17.4 µM and the TGI (TK-10 renal) was 32 µM. The GI50 (U251 CNS) was 3.42 µM, the TGI (U251 CNS) was 13 µM and the GI50 (UACC-257 melanoma) was 11 µM. It also gave a TGI (UACC-257 melanoma) of 25 µM, a GI50 (UACC-62 melanoma) of 6.24 µM and a TGI (UACC-62 melanoma) of 19.4 µM. For the same molecule, the GI50 (UO-31 renal) was 6.41 µM and the TGI (UO-31 renal) was 19.9 µM.
